Among the data in patent US6403628B1 (dated 2002) are melting point values, retold here.

What is called melting point is the temperature, or range, at which the solid turns liquid.

`CC(=O)c1nn(-c2c(Cl)cc(C(F)(F)F)cc2Cl)c(N)c1[S+](C)[O-]` (centres unmarked) had a melting point of 166 °C.

Molecule `CC(=O)c1nn(-c2c(Cl)cc(C(F)(F)F)cc2Cl)c(NSC(F)(F)F)c1[S+](C)[O-]` (centres unmarked) registered a melting point of 67 to 102 °C.

Molecule `CSc1c(C(C)=O)nn(-c2c(Cl)cc(C(F)(F)F)cc2Cl)c1N` had a melting point of 113 °C.

For the molecule `CC[S+]([O-])c1c(C(C)=O)nn(-c2c(Cl)cc(C(F)(F)F)cc2Cl)c1N` (centres unmarked), the melting point was 189 °C.

In the case of `CCNc1c([S+](C)[O-])c(C(C)=O)nn1-c1c(Cl)cc(C(F)(F)F)cc1Cl` (centres unmarked), the melting point worked out at 123 °C.

The molecule `CNc1c([S+](C)[O-])c(C(C)=O)nn1-c1c(Cl)cc(C(F)(F)F)cc1Cl` (centres unmarked) displayed a melting point of 126 °C.

`CCS(=O)(=O)CCNc1c([S+](C)[O-])c(C(C)=O)nn1-c1c(Cl)cc(C(F)(F)F)cc1Cl` (centres unmarked) had a melting point of 102 °C.

`CC(=O)c1nn(-c2c(Cl)cc(C(F)(F)F)cc2Br)c(N)c1[S+](C)[O-]` (centres unmarked) had a melting point of 153 °C.
